Values quoted from earlier work as cited in patent US7309799B2 (Collegium Pharmaceutical, Inc., priority 2004, dated 2007).

Columns and labels:
reuptake of serotonin = reuptake of serotonin (Homo sapiens, UniProt P31645); details: compared with noradrenaline reuptake
[1] = test system: neurotransmitter receptor
[2] = test system: SNL-induced hypersensitivity; details: rats; for reversal of mechanical hypersensitivity: SNL
gastric mucosa = details: preclinical studies

reuptake of serotonin, sequence (P31645 whole entry): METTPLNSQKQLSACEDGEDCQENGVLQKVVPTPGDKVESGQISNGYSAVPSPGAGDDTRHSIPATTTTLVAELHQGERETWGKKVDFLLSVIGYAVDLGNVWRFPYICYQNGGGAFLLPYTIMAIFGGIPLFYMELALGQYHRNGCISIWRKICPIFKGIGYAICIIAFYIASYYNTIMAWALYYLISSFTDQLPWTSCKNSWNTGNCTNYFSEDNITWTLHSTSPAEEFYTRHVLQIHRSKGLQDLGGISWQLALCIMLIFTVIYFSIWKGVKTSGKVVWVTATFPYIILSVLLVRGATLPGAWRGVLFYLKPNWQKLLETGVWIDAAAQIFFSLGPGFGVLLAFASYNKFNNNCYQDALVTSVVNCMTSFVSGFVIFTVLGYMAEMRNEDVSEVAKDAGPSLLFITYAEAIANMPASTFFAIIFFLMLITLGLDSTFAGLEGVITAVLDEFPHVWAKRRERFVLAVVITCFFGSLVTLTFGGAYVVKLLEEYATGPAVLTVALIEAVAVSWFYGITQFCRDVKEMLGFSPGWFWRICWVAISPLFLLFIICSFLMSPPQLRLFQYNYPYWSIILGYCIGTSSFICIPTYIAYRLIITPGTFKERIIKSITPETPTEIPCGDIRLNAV

Row | Compound | potency of inhibition of the reuptake of serotonin (reuptake of serotonin) | affinity for any neurotransmitter receptor studied [1] | effectiveness in reversing SNL induced thermal hypersensitivity compared with duloxetine [2] | reversal of SNL-induced thermal hypersensitivity [2] | reversal of mechanical hypersensitivity [2] | general and cardiovascular tolerability versus TCAs (database of over 3300 patients) | incidence of dysuria versus SSRIs (human, in vivo) | tolerability versus SSRIs (human, in vivo) | nausea and vomiting (dose-limiting gastrointestinal disturbances) (oral administration) | effect on gastric mucosa (gastric mucosa)
1 | CCN(CC)C(=O)[C@@]1(c2ccccc2)C[C@H]1CN.Cl (racemic) [milnacipran, racemic cis-2-(aminomethyl)-N,N-diethyl-1-phenyl-cyclopropanecarboxamide] | essentially equal potency | no detectable affinity | more effective | both reversed | Neither milnacipran nor duloxetine reversed | superior to those of the tricyclic antidepressants (TCAs) | higher incidence of dysuria | comparable to that of the SSRIs | increasing frequency after doses of 100 mg or above | direct irritant effect
2 | CNCC[C@H](Oc1cccc2ccccc12)c1cccs1 [duloxetine] |  |  |  | both reversed | Neither milnacipran nor duloxetine reversed |  |  |  |  | 
